{"source": "ChEMBL document CHEMBL1147072", "about": "“Synthesis and evaluation of transthyretin amyloidosis inhibitors containing carborane pharmacophores” (Proc Natl Acad Sci U S A, 2007)", "key": {"Transthyretin [1]": {"biological_target": "T1, Transthyretin (Homo sapiens, UniProt P02766)", "experiment": "Inhibition of human transthyretin fibril formation at pH 4.4 after 72 hrs"}, "Transthyretin [2]": {"biological_target": "T1, Transthyretin", "experiment": "Inhibition of human transthyretin assessed as amyloid fibril formation at pH 4.4 after 72 hrs relative to control", "design": "scale not given: the % may be the effect or the level left"}}, "data": [{"compound": "O=C(O)c1ccccc1Nc1cccc(C(F)(F)F)c1", "note": "[FLUFENAMIC ACID]", "values": [{"measurement": "IC50", "setting": "Transthyretin [1]", "value": 2900, "unit": "nM"}, {"measurement": "Activity", "setting": "Transthyretin [2]", "value": 14, "unit": "%"}]}]}
